Assay results published in PMC12597549 (Drug Metabolism and Disposition, 2025).
Where a chain is given by its changes, count along the chain named. Where two headings read alike, the source gives them in different places.

Assays:
[1] = target: T1, UGT2B7 in pooled human liver microsomes (HLM) (Homo sapiens, UniProt P16662); test: Inhibition of UGT2B7-mediated hydromorphone glucuronidation by cannabinoids in pooled HLM (screening, IC50, Ki, inhibition type); type: biochemical; conditions: for inhibition of HM3G formation: 400 μM hydromorphone, 2% BSA, vs vehicle control; for IC50: IC50 corrected for nonspecific binding (fu,inc from refs 32,33; 11-OH-THC fu,inc as surrogate for 7-OH-CBD and 7-COOH-CBD), mean ± SD; for Ki: Ki corrected for nonspecific binding (fu,inc from refs 32,33; 11-OH-THC fu,inc as surrogate for 7-OH-CBD), competitive model, mixed model for 11-OH-THC, read-out: Ki,u; for Inhibition Type: type of reversible inhibition of UGT2B7-mediated hydromorphone metabolism in HLM, Lineweaver-Burk replots
T1 sequence (P16662 24-529): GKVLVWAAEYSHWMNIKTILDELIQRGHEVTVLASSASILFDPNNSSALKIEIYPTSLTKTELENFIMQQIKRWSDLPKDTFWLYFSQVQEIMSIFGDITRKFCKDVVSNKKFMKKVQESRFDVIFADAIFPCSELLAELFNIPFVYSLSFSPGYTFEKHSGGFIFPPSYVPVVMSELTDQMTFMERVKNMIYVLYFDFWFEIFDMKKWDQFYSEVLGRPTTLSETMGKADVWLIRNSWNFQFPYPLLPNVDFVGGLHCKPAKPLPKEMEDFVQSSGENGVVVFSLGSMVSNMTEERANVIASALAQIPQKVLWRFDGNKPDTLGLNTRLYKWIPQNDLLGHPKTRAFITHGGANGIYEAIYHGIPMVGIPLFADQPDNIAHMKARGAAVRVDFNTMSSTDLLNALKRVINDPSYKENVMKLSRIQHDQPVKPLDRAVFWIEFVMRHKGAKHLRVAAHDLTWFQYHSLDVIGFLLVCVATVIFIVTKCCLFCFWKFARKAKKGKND

UGT2B7^268Tyr [2] = conditions: from IC50,u values in rUGT2B7^268Tyr vs rUGT2B7^268His microsomes
UGT2B7^268Tyr [3] = target: T2, UGT2B7^268Tyr (Homo sapiens, UniProt P16662); conditions: rUGT2B7^268Tyr microsomes; for inhibition of HM3G formation: 100 μM cannabinoid, 400 μM hydromorphone, 2% BSA, vs vehicle control; for IC50: read-out: IC50,u, IC50 corrected for nonspecific binding (fu,inc from refs 32,33; 11-OH-THC fu,inc as surrogate for 7-OH-CBD), mean ± SD
T2 sequence (P16662 24-529): T1 sequence (P16662 24-529)

[4] = Estimated maximum unbound hepatic inlet plasma concentrations of cannabinoids after oral or inhaled THC or CBD; parameters: species or system human; conditions: doses and Cmax from Bansal et al., 2022, read-out: Cmax,hepatic inlet,u
Text: [I]h is the inhibitor concentration in the liver and is defined as follows:(7) [I]h=fu,p×(Cmax+Fa×Fg×Ka×Dose/Qh×Rb) where fu,p is the unbound fraction of inhibitor in plasma, and Cmax is the maximal total (free and bound) inhibitor concentration in the plasma.

[5] = tested on: UGT2B7-mediated hydromorphone metabolism; test: Static mechanistic IVIVE modeling of cannabinoid-hydromorphone drug interaction (AUCR); parameters: species or system human; conditions: after inhalation and oral consumption of THC and CBD
UGT2B7^268His = target: T3, UGT2B7^268His (Homo sapiens, UniProt P16662, Y268H); test: Inhibition of hydromorphone glucuronidation (HM3G formation) by cannabinoids in rUGT2B7^268His microsomes; type: biochemical; conditions: for inhibition of HM3G formation: 100 μM cannabinoid, 400 μM hydromorphone, 2% BSA, vs vehicle control; for IC50: IC50 corrected for nonspecific binding (fu,inc from refs 32,33; 11-OH-THC fu,inc as surrogate for 7-OH-CBD and 7-COOH-CBD), mean ± SD
T3 construct: expressed in transfected cells; microsomal membrane fraction
T3 sequence (P16662 24-529 Y268H): T1 sequence (P16662 24-529) with Y245H

With 11-hydroxy (OH)-Δ^9-THC [11-OH-THC] the “inhibition of HM3G formation” value ([1]; 100 μM cannabinoid, pooled HLM) was 96%, the “α value (mixed inhibition model)” value ([1]; HLM, GraphPad mixed inhibition model) was greater than 1 and the IC50 ([1]; HLM) was 1080 ± 140 nM. For the same compound, the Ki ([1]; HLM) was 1010 ± 180 nM, the “Inhibition Type” value [1] was “mixed type inhibition” and the “inhibitory effect against UGT2B7∗2, fold lower than with UGT2B7∗1” value (UGT2B7^268Tyr [2]) was 2- to 3 fold. The “inhibition of HM3G formation” value (UGT2B7^268Tyr [3]) was 87%, the IC50 (UGT2B7^268Tyr [3]) was 840 ± 190 nM and the Cmax ([4]; THC 20 mg oral) was 20 nM. For the same compound, the Cmax ([4]; THC 25 mg inhalation) was 10 nM, the Cmax ([4]; THC 70 mg inhalation) was 30 nM and the Cmax ([4]; THC 100 mg inhalation) was 50 nM. The Cmax ([4]; THC 130 mg oral) was 100 nM, the Cmax ([4]; THC 160 mg oral) was 120 nM and the “increase in hydromorphone exposure (static modeling)” value [5] was greater than 1.25 fold. The “inhibition of HM3G formation” value (UGT2B7^268His) was 98% and the IC50 (UGT2B7^268His) was 360 ± 30 nM.
For `C=C(C)[C@@H]1CCC(C(=O)O)=C[C@H]1c1c(O)cc(CCCCC)cc1O` [7-COOH-CBD], the “inhibition of HM3G formation (in words)” value ([1]; 100 μM cannabinoid, pooled HLM) was “only minimal or moderate inhibition”, the IC50 ([1]; HLM) was greater than 10000 nM and the “inhibition of HM3G formation” value (UGT2B7^268Tyr [3]) was 41%. For the same compound, the “inhibitory effect on hydromorphone metabolism for the UGT2B7∗2 variant (in words)” value (UGT2B7^268Tyr [3]) was “little to no inhibitory effect”, the “inhibition of HM3G formation” value (UGT2B7^268His) was 60% and the IC50 (UGT2B7^268His) was 5540 ± 3670 nM.
In the case of `C=C(C)[C@@H]1CCC(CO)=C[C@H]1c1c(O)cc(CCCCC)cc1O` [7-OH-CBD, 7-hydroxycannabidiol], the “inhibition of HM3G formation” value ([1]; 100 μM cannabinoid, pooled HLM) is reported as 87%, the IC50 ([1]; HLM) is reported as 950 ± 250 nM and the Ki ([1]; HLM) is reported as 740 ± 120 nM. For the same compound, the “Inhibition Type” value [1] was “Competitive”, the “inhibition of HM3G formation” value (UGT2B7^268Tyr [3]) was 77% and the IC50 (UGT2B7^268Tyr [3]) was 1260 ± 930 nM. For the same compound, the Cmax ([4]; CBD 70 mg oral) was 30 nM, the Cmax ([4]; CBD 700 mg oral) was 340 nM and the Cmax ([4]; CBD 2000 mg oral) was 980 nM. The “increase in hydromorphone exposure (static modeling)” value [5] was greater than 1.25 fold, the “inhibition of HM3G formation” value (UGT2B7^268His) was 82% and the IC50 (UGT2B7^268His) was 1390 ± 770 nM.
